Experimental data as given in patent publication US20120309750A1, “5-MEMBERED HETEROCYCLE DERIVATIVES AND MANUFACTURING PROCESS THEREOF” (ILDONG PHARM CO., LTD., priority 2010, published 2012).

Assays:
[1] = molecular target: yeast HSP90 (Saccharomyces cerevisiae, UniProt P02829); test: Hsp90 ATPase assay (malachite green); type: biochemical
Procedure: (§1) For present invention, the ATPase activity of yeast HSP90 was measured using malachite green assay. Formula I compounds for primary antitumoral activity were treated in human colorectal cancer cells (HCT116) showing increased expression levels of HSP90 client protein and cotoxicity IC50 values was measured as a result.

[2] = test system: human colorectal cancer cells (HCT116); test: Growth inhibition assay (cytotoxicity) in HCT116; type: cell-based; details: HCT-116
Procedure: as §1

Chain of yeast HSP90 (P02829 whole entry): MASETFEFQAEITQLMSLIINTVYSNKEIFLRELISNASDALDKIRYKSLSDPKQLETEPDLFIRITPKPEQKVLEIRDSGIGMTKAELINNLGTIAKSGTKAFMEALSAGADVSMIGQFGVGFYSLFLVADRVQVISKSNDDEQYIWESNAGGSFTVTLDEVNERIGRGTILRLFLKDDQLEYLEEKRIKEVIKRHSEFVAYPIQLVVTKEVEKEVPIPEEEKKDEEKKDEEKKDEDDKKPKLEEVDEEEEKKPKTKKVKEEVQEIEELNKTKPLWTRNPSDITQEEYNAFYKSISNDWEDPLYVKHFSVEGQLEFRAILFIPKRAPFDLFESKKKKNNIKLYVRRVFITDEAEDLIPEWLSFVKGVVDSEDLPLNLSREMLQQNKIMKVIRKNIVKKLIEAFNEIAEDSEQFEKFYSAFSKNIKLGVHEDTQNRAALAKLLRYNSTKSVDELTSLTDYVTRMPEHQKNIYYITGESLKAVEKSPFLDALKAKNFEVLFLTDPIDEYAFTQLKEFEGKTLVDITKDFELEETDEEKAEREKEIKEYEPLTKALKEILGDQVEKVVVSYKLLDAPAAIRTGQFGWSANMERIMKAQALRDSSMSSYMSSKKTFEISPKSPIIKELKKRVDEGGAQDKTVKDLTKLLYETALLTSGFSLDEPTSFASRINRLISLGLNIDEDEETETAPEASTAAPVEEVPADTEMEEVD

SMILES	IC50 [1] [nM]	IC50 [2] [nM]
CCNC(=O)c1nc(-c2c(C(=O)NCC)noc2-c2cc(C(C)C)c(O)cc2O)no1 [Compound I-59, 3-(5-(2,4-Dihydroxy-5-isopropylphenyl)-3-(ethylcarbamoyl)isoxazol-4-yl)-N-ethyl-1,2,4-oxadiazole-5-carboxamide]	500 to 1000	< 500
CCNC(=O)c1noc(-c2cc(C(C)C)c(O)cc2O)c1-c1ccsc1CN1CCOCC1 [Compound I-2, 5-(2,4-Dihydroxy-5-isopropylphenyl)-N-ethyl-4-(2-(morpholinomethyl)thiophen-3-yl)isoxazole-3-carboxamide]	> 1000	< 500
CCNC(=O)c1noc(-c2cc(C(C)C)c(O)cc2O)c1-c1noc(C(=O)N2CCCC2)n1 [Compound I-68, 5-(2,4-Dihydroxy-5-isopropylphenyl)-N-ethyl-4-(5-(pyrrolidine-1-carbonyl)-1,2,4-oxadiazol-3-yl)isoxazole-3-carboxamide]	500 to 1000	< 500
CCNC(=O)c1noc(-c2cc(C(C)C)c(O)cc2O)c1-c1noc([C@H](C)O)n1 [Compound I-83, (S)-5-(2,4-Dihydroxy-5-isopropylphenyl)-N-ethyl-4-(5-(1-hydroxyethyl)-1,2,4-oxadiazol-3-yl)isoxazole-3-carboxamide]	500 to 1000	< 500
CCNC(=O)c1noc(-c2cc(C(C)C)c(O)cc2O)c1-c1cnn(CC)c1 [Compound I-104, 5-(2,4-Dihydroxy-5-isopropylphenyl)-N-ethyl-4-(1-ethyl-1H-pyrazol-4-yl)isoxazole-3-carboxamide]	500 to 1000	< 500
CCNC(=O)c1noc(-c2cc(Cl)c(O)cc2O)c1-c1cc(C(=O)OCC)no1 [Compound I-25, Ethyl 5-(5-chloro-2,4-dihydroxyphenyl)-3-(ethylcarbamoyl)-4,5′-biisoxazole-3′-carboxylate]	500 to 1000	> 1000
CCNC(=O)c1noc(-c2cc(C(C)C)c(O)cc2O)c1C1CC(CO)=NO1 (stereo not shown) [Compound I-9, 5-(2,4-Dihydroxy-5-isopropylphenyl)-N-ethyl-4-(3-(hydroxymethyl)-4,5-dihydroisoxazol-5-yl)isoxazole-3-carboxamide]	500 to 1000	< 500
CCCn1ccc(-c2c(C(=O)NCC)noc2-c2cc(C(C)C)c(O)cc2O)n1 [Compound I-101, 5-(2,4-Dihydroxy-5-isopropylphenyl)-N-ethyl-4-(1-propyl-1H-pyrazol-3-yl)isoxazole-3-carboxamide]	500 to 1000	< 500
CC(C)c1cc(-c2onc(Cn3ccnn3)c2-c2ccsc2)c(O)cc1O [Compound I-5, 4-(3-((1H-1,2,3-Triazol-1-yl)methyl)-4-(thiophen-3-yl)isoxazol-5-yl)-6-isopro pylbenzene-1,3-diol]	> 1000	< 500
CCNC(=O)C1=NOC(c2c(C(=O)NCC)noc2-c2cc(C(C)C)c(O)cc2O)C1 (stereo not shown) [Compound I-8, 5-(2,4-Dihydroxy-5-isopropylphenyl)-N-ethyl-4-(3-(ethylcarbamoyl)-4,5-dihydroisoxazol-5-yl)isoxazole-3-carboxamide]	500 to 1000	< 500
CCNC(=O)c1noc(-c2cc(C(C)C)c(O)cc2O)c1-c1noc(CN2CCCC2)n1 [Compound I-95, 5-(2,4-Dihydroxy-5-isopropylphenyl)-N-ethyl-4-(5-(pyrrolidin-1-ylmethyl)-1,2,4-oxadiazol-3-yl)isoxazole-3-carboxamide]	500 to 1000	< 500
CCNC(=O)c1noc(-c2cc(C(C)C)c(O)cc2O)c1C1CC(C(=O)OCC)=NO1 (stereo not shown) [Compound I-7, Ethyl 5-(5-(2,4-dihydroxy-5-isopropylphenyl)-3-(ethylcarbamoyl)isoxazol-4-yl)-4,5-dihydroisoxazole-3-carboxylate]	500 to 1000	500 to 1000
CCNC(=O)c1noc(-c2cc(C(C)C)c(O)cc2O)c1-c1ccc(CN2CCOCC2)s1 [Compound I-1, 5-(2,4-Dihydroxy-5-isopropylphenyl)-N-ethyl-4-(5-(morpholinomethyl)thiophen-2-yl)isoxazole-3-carboxamide]	< 500	< 500

Further lines, with some results ahead:

IC50 [1] [nM]	SMILES	IC50 [2] [nM]
< 500	CCNC(=O)c1noc(-c2cc(C(C)C)c(O)cc2O)c1-c1cc(C)no1 [Compound I-37, 5-(2,4-Dihydroxy-5-isopropylphenyl)-N-ethyl-3′-methyl-4,5′-biisoxazole-3-carboxamide]	< 500
500 to 1000	CCNC(=O)c1noc(-c2cc(C(C)C)c(O)cc2O)c1-c1cc(CN2CCCC2)no1 [Compound I-39, 5-(2,4-Dihydroxy-5-isopropylphenyl)-N-ethyl-3′-(pyrrolidin-1-ylmethyl)-4,5′-biisoxazole-3-carboxamide]	< 500
< 500	CCNC(=O)c1noc(-c2cc(C(C)C)c(O)cc2O)c1-c1cc(CNC)no1 [Compound I-42, 5-(2,4-Dihydroxy-5-isopropylphenyl)-N-ethyl-3′-((methylamino)methyl)-4,5′-biisoxazole-3-carboxamide]	< 500
500 to 1000	CCNC(=O)c1noc(-c2cc(C(C)C)c(O)cc2O)c1-c1ccn(CC)n1 [Compound I-99, 5-(2,4-Dihydroxy-5-isopropylphenyl)-N-ethyl-4-(1-ethyl-1H-pyrazol-3-yl)isoxazole-3-carboxamide]	< 500
500 to 1000	CCNC(=O)c1noc(-c2cc(C(C)C)c(O)cc2O)c1-c1noc(-c2ccc(OCC)cc2)n1 [Compound I-90, 5-(2,4-Dihydroxy-5-isopropylphenyl)-4-(5-(4-ethoxyphenyl)-1,2,4-oxadiazol-3-yl)-N-ethylisoxazole-3-carboxamide]	> 1000
> 1000	CCNC(=O)c1noc(-c2cc(C(C)C)c(O)cc2O)c1-c1noc(O)n1 [Compound I-80, 5-(2,4-Dihydroxy-5-isopropylphenyl)-N-ethyl-4-(5-hydroxy-1,2,4-oxadiazol-3-yl)isoxazole-3-carboxamide]	> 1000
< 500	CCNC(=O)c1cc(-c2c(C(=O)NCC)noc2-c2cc(C(C)C)c(O)cc2O)on1 [Compound I-16, 5-(2,4-Dihydroxy-5-isopropylphenyl)-N^3,N^3′-diethyl-4,5′-biisoxazole-3,3′-dicarboxamide]	< 500
500 to 1000	CCNC(=O)c1noc(-c2cc(C(C)C)c(O)cc2O)c1-c1ncon1 [Compound I-66, 5-(2,4-Dihydroxy-5-isopropylphenyl)-N-ethyl-4-(1,2,4-oxadiazol-3-yl)isoxazole-3-carboxamide]	< 500
< 500	CCNC(=O)c1noc(-c2cc(C(C)C)c(O)cc2O)c1-c1cc(CC#N)no1 [Compound I-35, 3′-(Cyanomethyl)-5-(2,4-dihydroxy-5-isopropylphenyl)-N-ethyl-4,5′-biisoxazole-3-carboxamide]	< 500
< 500	CCNC(=O)c1noc(-c2cc(C(C)C)c(O)cc2O)c1-c1cc(CO)no1 [Compound I-17, 5-(2,4-Dihydroxy-5-isopropylphenyl)-N-ethyl-3′-(hydroxymethyl)-4,5′-biisoxazole-3-carboxamide]	< 500
< 500	CCNC(=O)c1noc(-c2cc(C(C)C)c(O)cc2O)c1-c1cc(COCC(=O)OC)no1 [Compound I-19, Methyl 2-((5-(2,4-dihydroxy-5-isopropylphenyl)-3-(ethylcarbamoyl)-4,5′-biisoxazol-3′-yl)methoxy)acetate]	< 500
< 500	CCNC(=O)c1noc(-c2cc(C(C)C)c(O)cc2O)c1-c1noc(-c2ccccc2)n1 [Compound I-61, 5-(2,4-Dihydroxy-5-isopropylphenyl)-N-ethyl-4-(5-phenyl-1,2,4-oxadiazol-3-yl) isoxazole-3-carboxamide]	< 500
500 to 1000	CCNC(=O)c1noc(-c2cc(C(C)C)c(O)cc2O)c1-c1noc(NC)n1 [Compound I-79, 5-(2,4-Dihydroxy-5-isopropylphenyl)-N-ethyl-4-(5-(methylamino)-1,2,4-oxadiazol-3-yl)isoxazole-3-carboxamide]	< 500
500 to 1000	CCNC(=O)c1noc(-c2cc(C(C)C)c(O)cc2O)c1-c1cc(-c2ccccc2)no1 [Compound I-49, 5-(2,4-Dihydroxy-5-isopropylphenyl)-N-ethyl-3′-phenyl-4,5′-biisoxazole-3-carboxamide]	500 to 1000
500 to 1000	CCNC(=O)c1noc(-c2cc(C(C)C)c(O)cc2O)c1-c1cc(CNC(C)C)no1 [Compound I-40, 5-(2,4-Dihydroxy-5-isopropylphenyl)-N-ethyl-3′-((isopropylamino)methyl)-4,5′-biisoxazole-3-carboxamide]	< 500
< 500	C=CCNCc1cc(-c2c(C(=O)NCC)noc2-c2cc(C(C)C)c(O)cc2O)on1 [Compound I-44, 3′-((Allylamino)methyl)-5-(2,4-dihydroxy-5-isopropylphenyl)-N-ethyl-4,5′-biis oxazole-3-carboxamide]	< 500
< 500	CCNC(=O)c1noc(-c2cc(C(C)C)c(O)cc2O)c1-c1noc(-c2ccco2)n1 [Compound I-63, 5-(2,4-Dihydroxy-5-isopropylphenyl)-N-ethyl-4-(5-(furan-2-yl)-1,2,4-oxadiazol-3-yl)isoxazole-3-carboxamide]	< 500
500 to 1000	CCNC(=O)c1noc(-c2cc(C(C)C)c(O)cc2O)c1-c1cc(C(=O)N2CCOCC2)no1 [Compound I-23, 5-(2,4-Dihydroxy-5-isopropylphenyl)-N-ethyl-3′-(morpholine-4-carbonyl)-4,5′-biisoxazole-3-carboxamide]	< 500
500 to 1000	CCNC(=O)c1noc(-c2cc(C(C)C)c(O)cc2O)c1-c1cc(-c2ccsc2)no1 [Compound I-46, 5-(2,4-Dihydroxy-5-isopropylphenyl)-N-ethyl-3′-(thiophen-3-yl)-4,5′-biisoxazole-3-carboxamide]	< 500
